Converted amounts (≈) assume the structure as drawn. Structures can show the parent of a compound that is named as a salt. Where two headings read alike, the source gives them in different places.
How the values were obtained:
[1] = target: human ether a go-go (hERG) channel (Homo sapiens (Human), UniProt Q12809); assay: hERG inhibition, IonWorks patch clamp electrophysiology; format: cell-based; conditions: IonWorks patch clamp
Method: (§1) Compounds of the invention were tested for inhibition of the human ether a go-go (hERG) channel using IonWorks™ patch clamp electrophysiology at Essen Bioscience (Welwyn Garden City, England).

hERG = hERG (Homo sapiens (Human), UniProt Q12809); assay: as above; format: cell-based; conditions: human, hERG, read-out: % Inhibition at Top Concentration
Sequence of hERG (Q12809 whole entry): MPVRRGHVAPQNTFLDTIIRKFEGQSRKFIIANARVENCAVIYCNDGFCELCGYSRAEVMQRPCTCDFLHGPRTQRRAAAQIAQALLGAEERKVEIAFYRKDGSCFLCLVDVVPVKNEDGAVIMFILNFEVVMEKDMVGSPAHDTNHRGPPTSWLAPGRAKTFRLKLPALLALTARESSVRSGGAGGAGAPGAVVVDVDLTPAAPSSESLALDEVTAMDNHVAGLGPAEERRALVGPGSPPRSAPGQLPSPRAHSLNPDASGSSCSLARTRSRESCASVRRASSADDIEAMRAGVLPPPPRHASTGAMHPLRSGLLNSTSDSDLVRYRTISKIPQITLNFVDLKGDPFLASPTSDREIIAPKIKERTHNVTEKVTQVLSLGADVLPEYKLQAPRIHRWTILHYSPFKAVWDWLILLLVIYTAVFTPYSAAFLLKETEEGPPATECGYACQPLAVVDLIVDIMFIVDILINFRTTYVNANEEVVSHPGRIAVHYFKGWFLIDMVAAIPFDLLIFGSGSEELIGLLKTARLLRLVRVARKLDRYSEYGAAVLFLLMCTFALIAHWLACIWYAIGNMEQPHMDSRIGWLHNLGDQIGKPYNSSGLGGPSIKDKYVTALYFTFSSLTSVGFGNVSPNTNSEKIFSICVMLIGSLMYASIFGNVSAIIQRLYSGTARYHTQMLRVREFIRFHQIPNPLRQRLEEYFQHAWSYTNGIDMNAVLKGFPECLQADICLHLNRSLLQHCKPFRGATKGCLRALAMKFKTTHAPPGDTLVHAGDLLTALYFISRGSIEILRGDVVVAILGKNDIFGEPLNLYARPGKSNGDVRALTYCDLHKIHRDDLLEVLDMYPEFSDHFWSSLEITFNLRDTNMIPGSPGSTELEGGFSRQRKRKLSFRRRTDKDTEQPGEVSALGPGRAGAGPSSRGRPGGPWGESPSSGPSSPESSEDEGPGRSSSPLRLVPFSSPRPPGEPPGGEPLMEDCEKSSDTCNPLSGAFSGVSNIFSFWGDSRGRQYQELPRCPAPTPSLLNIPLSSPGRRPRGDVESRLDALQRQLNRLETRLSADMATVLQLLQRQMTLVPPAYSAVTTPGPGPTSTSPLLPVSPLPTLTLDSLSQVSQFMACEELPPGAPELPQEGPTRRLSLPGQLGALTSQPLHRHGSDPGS
Method: as §1

GSK 3α = GSK 3α (Homo sapiens (Human), UniProt P49840); assay: GSK 3α enzyme inhibition (Method 2), Z-LYTE FRET; format: biochemical; conditions: read-out: IC50 Values for Enzyme Inhibition GSK3α
Sequence of GSK 3α (P49840 whole entry): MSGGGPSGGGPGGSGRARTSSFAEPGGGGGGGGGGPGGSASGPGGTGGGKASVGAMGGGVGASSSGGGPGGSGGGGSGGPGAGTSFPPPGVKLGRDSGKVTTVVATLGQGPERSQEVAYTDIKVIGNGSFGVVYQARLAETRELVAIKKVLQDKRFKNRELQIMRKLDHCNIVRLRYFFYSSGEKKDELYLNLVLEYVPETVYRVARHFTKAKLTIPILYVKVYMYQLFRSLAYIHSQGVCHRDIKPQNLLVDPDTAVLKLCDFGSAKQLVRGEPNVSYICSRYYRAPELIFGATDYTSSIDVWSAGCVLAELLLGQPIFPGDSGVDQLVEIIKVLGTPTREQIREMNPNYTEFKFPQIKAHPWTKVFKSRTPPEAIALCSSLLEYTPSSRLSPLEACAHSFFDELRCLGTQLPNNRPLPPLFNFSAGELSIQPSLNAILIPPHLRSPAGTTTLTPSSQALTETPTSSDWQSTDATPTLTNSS
Procedure, shortened: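 GSK3-α (500 ng/mL stock) was preincubated with compound at RT for 2 hr (Method 1; 4-0.004 μg/mL stocks) or 105 min (Method 2; 10-0.01 μg/mL stocks). The Z-LYTE FRET peptide (8 μM stock) and ATP (40 μM stock) were then reacted for 1 hr, followed by 1 hr protease development. Phosphorylation was read as the coumarin/fluorescein emission ratio.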

Jurkat cells = assay: Cell cytotoxicity assay (r); format: cell-based, human; conditions: 24 hours
Procedure, shortened: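 Jurkat cells (1×10^5/well, RPMI + 10% FBS) exposed to compound at 20, 5 or 1 μg/mL final (1.0% DMSO control) for 24 h at 37° C., 5% CO2. Then stained with 7.5 μg/mL propidium iodide for 15 min. % viability = PI-negative cells by flow cytometry, normalized to DMSO.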

[2] = Stability of pharmaceutical formulations (HPLC); format: physicochemical; conditions: 1 mg/mL solution; for Purity (%) at week n = 4: 4 weeks
Method: The samples were sonicated to achieve clear solutions having the following properties: Osmolality (mOsm/kg): 310 (Na), 314 (HCl); pH: 7.00 (Na), 7.05 (HCl). 0.5 mL of the stock solutions were diluted to 1 mL with 20% DMSO in water & injected for purity analysis by HPLC. The remaining stock solutions were then split into aliquots of 0.5 mL in HPLC vials, and stored at various conditions in duplicate. Samples were stored at 5 and 25° C., before being analysed by HPLC at 1, 2 and 4 weeks. Separate samples were stored at 40° C. and analysed at 4 weeks.

[3] = Solubility in fasted-state simulated colonic fluid (FaSSCoF) at pH 6.5; format: physicochemical; conditions: 25 °C, pH 6.5, fassgf or other biorelevant, thermodynamic from solid
Procedure, shortened: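 Compounds were suspended at up to 2-10 mg/mL in pH 6.5 Tris/maleate FaSSCoF containing a five-bile-acid mixture, phosphatidylcholine, palmitic acid and BSA. After 24 h equilibration at 25° C the suspension was filtered and the filtrate quantified by HPLC peak area against a standard.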

B-Raf = B-Raf (Homo sapiens (Human), UniProt P15056); assay: KINOMEscan binding of B-Raf to its standard ligand
Sequence of B-Raf (P15056 whole entry): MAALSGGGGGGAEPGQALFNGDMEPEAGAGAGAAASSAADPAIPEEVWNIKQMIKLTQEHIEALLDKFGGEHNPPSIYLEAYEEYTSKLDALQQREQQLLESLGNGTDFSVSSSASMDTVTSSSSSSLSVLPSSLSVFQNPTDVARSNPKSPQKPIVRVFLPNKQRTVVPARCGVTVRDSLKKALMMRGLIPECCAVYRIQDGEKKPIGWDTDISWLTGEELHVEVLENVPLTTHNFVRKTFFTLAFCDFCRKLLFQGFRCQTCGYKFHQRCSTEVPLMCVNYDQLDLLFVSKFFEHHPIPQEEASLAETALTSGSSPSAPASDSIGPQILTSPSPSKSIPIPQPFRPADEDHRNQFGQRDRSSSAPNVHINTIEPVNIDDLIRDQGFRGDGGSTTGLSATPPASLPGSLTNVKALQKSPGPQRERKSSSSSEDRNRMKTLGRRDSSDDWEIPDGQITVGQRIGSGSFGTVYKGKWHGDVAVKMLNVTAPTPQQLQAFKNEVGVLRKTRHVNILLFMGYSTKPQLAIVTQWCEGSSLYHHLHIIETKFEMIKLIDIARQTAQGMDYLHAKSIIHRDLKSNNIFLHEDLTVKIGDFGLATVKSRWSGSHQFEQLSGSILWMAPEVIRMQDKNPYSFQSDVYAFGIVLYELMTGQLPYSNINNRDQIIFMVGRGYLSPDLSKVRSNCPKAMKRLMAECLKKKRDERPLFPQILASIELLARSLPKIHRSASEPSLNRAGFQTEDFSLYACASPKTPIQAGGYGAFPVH
Description: (§2) These assays may be conducted by DiscoverX (formerly Ambit; San Diego, Calif.).

B-Raf (V600E) = B-Raf (V600E) (Homo sapiens (Human), UniProt P15056, V600E); assay: KINOMEscan binding of B-Raf (V600E) to its standard ligand
Sequence of B-Raf (V600E) (P15056 whole entry V600E): as the sequence (P15056 whole entry) above, with V600E counted along it
Description: as §2

non-mutant kinases = assay: KinomeScan Selectivity Scores; format: binding; conditions: for KinomeScan Selectivity Score S(1): (non-mutant kinases with % Ctrl <1)/(non-mutant kinases tested)
Description: as §2

[4] = pH 6.5 FaSSCoF Solubility (mg/mL) Run 1
[5] = pH 6.5 FaSSCoF Solubility (mg/mL) Run 2

Sequence of human ether a go-go (hERG) channel (Q12809 whole entry): as the sequence (Q12809 whole entry) above

Question: What does the source list for `COc1cc(Nc2cc(Oc3ccc(NC(=O)Nc4cc(C(C)(C)C)cc(NS(C)(=O)=O)c4OC)c4ccccc34)ccn2)ccc1C(=O)NC1CCN(C)CC1` [17(j), 4-[[4-[[4-[[5-tert-butyl-3-(methanesulfonamido)-2-methoxy-phenyl]carbamoylamino]-1-naphthyl]oxy]-2-pyridyl]amino]-2-methoxy-N-(1-methyl-4-piperidyl)benzamide]?
Answer: IC50 [1]: > 3300 nM; inhibition at 3 µM (hERG; 3 μM): 7%; IC50 (GSK 3α): 2000 nM

Question: With `COc1cc(Nc2cc(Oc3ccc(NC(=O)Nc4cc(C(C)(C)C)cc(NS(C)(=O)=O)c4OC)c4ccccc34)ccn2)ccc1C(=O)NCCN1CCN(CCO)CC1` [17(z), 4-[[4-[[4-[[5-tert-butyl-3-(methanesulfonamido)-2-methoxy-phenyl]carbamoylamino]-1-naphthyl]oxy]-2-pyridyl]amino]-N-[2-[4-(2-hydroxyethyl)piperazin-1-yl]ethyl]-2-methoxy-benzamide] as the molecule, how does the IC50 (GSK 3α) read?
Answer: Its IC50 is 2880 nM.

Question: What about the “% Viability at 20 μg/mL” value (Jurkat cells) of the same molecule?
Answer: Its value is 2.0%.

Question: Which “Purity (%) at week n = 2” value ([2]; stored at 5° C., 2 weeks) does the source give for `COc1cc(Nc2cc(Oc3ccc(NC(=O)Nc4cc(C(C)(C)C)cc(NS(C)(=O)=O)c4OC)c4ccccc34)ccn2)ccc1C(=O)O.Cl` [Example 1, hydrochloride salt] here?
Answer: The value was 98.0%.

Question: What about the “Purity (%) at week n = 4” value ([2]; stored at 5° C.) of the same molecule?
Answer: The value was 98.0%.

Question: And the “Purity (%) at week n = 1” value ([2]; stored at 25° C., 1 week)?
Answer: Its value is 98.0%.

Question: With `COc1cc(Nc2cc(Oc3ccc(NC(=O)Nc4cc(C(C)(C)C)cc(NS(C)(=O)=O)c4OC)c4ccccc34)ccn2)ccc1C(=O)O` [Example 1, sodium salt] as the molecule, how does the “Purity (%) at week n = 4” value ([2]; stored at 40° C.) read?
Answer: Its value is 76.0%.

Question: Which results are given for `COc1cc(Nc2cc(Oc3ccc(NC(=O)Nc4cc(C(C)(C)C)cc(NS(C)(=O)=O)c4OC)c4ccccc34)ccn2)ccc1C(=O)NCCC1CCN(C)CC1` [Example 14, 4-[[4-[[4-[[5-tert-Butyl-3-(methanesulfonamido)-2-methoxy-phenyl]carbamoylamino]-1-naphthyl]oxy]-2-pyridyl]amino]-2-methoxy-N-[2-(1-methyl-4-piperidyl)ethyl]benzamide]?
Answer: solubility thermodynamic at 24 h [3, 4]: 0.016 mg/mL (≈ 19.4 µM); solubility thermodynamic at 24 h [3, 5]: 0.013 mg/mL (≈ 15.8 µM); IC50 (GSK 3α): 2200 nM; % Viability at 20 μg/mL (Jurkat cells): 0.7%

Question: What does the source list for `C#Cc1cc(Nc2cc(Oc3ccc(NC(=O)Nc4cc(C(C)(C)C)cc(NS(C)(=O)=O)c4OC)c4ccccc34)ccn2)ccc1C(=O)NCCN1CCOCC1` [Example 15, 4-[[4-[[4-[[5-tert-Butyl-3-(methanesulfonamido)-2-methoxy-phenyl]carbamoylamino]-1-naphthyl]oxy]-2-pyridyl]amino]-2-ethynyl-N-(2-morpholinoethyl)benzamide]?
Answer: solubility thermodynamic at 24 h [3, 4]: 0.01 mg/mL (≈ 12.4 µM); solubility thermodynamic at 24 h [3, 5]: 0.01 mg/mL (≈ 12.4 µM); IC50 (GSK 3α): 2790 nM; % Viability at 5 μg/mL (Jurkat cells; 5 μg/mL): 75.0%

Question: With `COc1cc(Nc2cc(Oc3ccc(NC(=O)Nc4cc(C(C)(C)C)cc(NS(C)(=O)=O)c4OC)c4ccccc34)ccn2)cc(OC)c1C(=O)NCCN1CCN(C)CC1` [Example 22, 4-((4-((4-(3-(5-(tert-Butyl)-2-methoxy-3-(methylsulfonamido)phenyl)ureido)naphthalen-1-yl)oxy)pyridin-2-yl)amino)-2,6-dimethoxy-N-(2-(4-methylpiperazin-1-yl)ethyl)benzamide] as the molecule, how does the IC50 [1] read?
Answer: The IC50 was > 3700 nM.

Question: And the inhibition at 3.7 µM (hERG; 3.7 μM)?
Answer: Its inhibition at 3.7 µM is 13%.

Question: And the solubility thermodynamic at 24 h [3, 4]?
Answer: Its solubility thermodynamic at 24 h is 0.017 mg/mL (≈ 19.9 µM).

Question: What about the solubility thermodynamic at 24 h [3, 5] of the same molecule?
Answer: Its solubility thermodynamic at 24 h is 0.025 mg/mL (≈ 29.2 µM).

Question: And the solubility thermodynamic at 24 h ([3]; pH 6.5 FaSSCoF Solubility (mg/mL) Run 3)?
Answer: The solubility thermodynamic at 24 h was 0.013 mg/mL (≈ 15.2 µM).

Question: What about the solubility thermodynamic at 24 h ([3]; pH 6.5 FaSSCoF Solubility (mg/mL) Run 4) of the same molecule?
Answer: Its solubility thermodynamic at 24 h is 0.009 mg/mL (≈ 10.5 µM).

Question: Which “effect on the binding of B-Raf to its standard ligand” value (B-Raf) does the source give for `COc1cc(Nc2cc(Oc3ccc(NC(=O)Nc4cc(C(C)(C)C)cc(NS(C)(=O)=O)c4OC)c4ccccc34)ccn2)cc(OC)c1C(=O)NCCOCCOCCO` [Example 36, 4-((4-((4-(3-(5-(tert-butyl)-2-methoxy-3-(methylsulfonamido)phenyl)ureido)naphthalen-1-yl)oxy)pyridin-2-yl)amino)-N-(2-(2-(2-hydroxyethoxy)ethoxy)ethyl)-2,6-dimethoxybenzamide] here?
Answer: The value was “did not have any significant effect”.

Question: And the “effect on the binding of B-Raf (V600E) to its standard ligand” value (B-Raf (V600E))?
Answer: The value was “did not have any significant effect”.

Question: What about the IC50 [1] of the same molecule?
Answer: Its IC50 is > 11000 nM.

Question: And the inhibition at 11 µM (hERG)?
Answer: The inhibition at 11 µM was 24%.

Question: What about the solubility thermodynamic at 24 h [3, 4] of the same molecule?
Answer: The solubility thermodynamic at 24 h was 0.006 mg/mL (≈ 6.97 µM).

Question: What about the solubility thermodynamic at 24 h [3, 5] of the same molecule?
Answer: The solubility thermodynamic at 24 h was 0.006 mg/mL (≈ 6.97 µM).

Question: What about the “KinomeScan Selectivity Score S(1)” value (non-mutant kinases; 50 nM) of the same molecule?
Answer: Its value is 0.002.

Question: What about the “KinomeScan Selectivity Score S(10)” value (non-mutant kinases; 50 nM, (non-mutant kinases with % Ctrl <10)/(non-mutant kinases tested)) of the same molecule?
Answer: Its value is 0.050.

Question: What about the “KinomeScan Selectivity Score S(1)” value (non-mutant kinases; 500 nM) of the same molecule?
Answer: Its value is 0.079.

Question: Which results are given for `COc1cc(Nc2cc(Oc3ccc(NC(=O)Nc4cc(C(C)(C)C)cc(NC(=O)CO)c4OC)c4ccccc34)ccn2)ccc1C(=O)NCCN1CC[S+]([O-])CC1` [Example 41, 4-((4-((4-(3-(5-(tert-Butyl)-3-(2-hydroxyacetamido)-2-methoxyphenyl)ureido)naphthalen-1-yl)oxy)pyridin-2-yl)amino)-2-methoxy-N-(2-(1-oxidothiomorpholino)ethyl)benzamide]?
Answer: IC50 [1]: > 11000 nM; inhibition at 11 µM (hERG): 7%; solubility thermodynamic at 24 h [3, 4]: 0.007 mg/mL (≈ 8.5 µM); solubility thermodynamic at 24 h [3, 5]: 0.003 mg/mL (≈ 3.64 µM)

Question: With `CCOP(C)(=O)c1ccc(Nc2cc(Oc3ccc(NC(=O)Nc4cc(C(C)(C)C)cc(NS(C)(=O)=O)c4OC)c4ccccc34)ccn2)cc1OC` (stereo not drawn) [Example 43, ethyl (4-((4-((4-(3-(5-(tert-butyl)-2-methoxy-3-(methylsulfonamido)phenyl)-ureido)naphthalen-1-yl)oxy)pyridin-2-yl)amino)-2-methoxyphenyl)(methyl)phosphinate] as the molecule, how does the IC50 [1] read?
Answer: Its IC50 is > 11000 nM.

Question: What about the inhibition at 11 µM (hERG) of the same molecule?
Answer: Its inhibition at 11 µM is 13%.

Question: What about the solubility thermodynamic at 24 h ([3]; FaSSCoF pH 6.5, 25° C., 24 h, Run 1, read-out: pH 6.5 FaSSCoF Solubility (mg/mL) Run 1) of the same molecule?
Answer: Its solubility thermodynamic at 24 h is 0.003 mg/mL (≈ 3.94 µM).

Question: And the solubility thermodynamic at 24 h ([3]; FaSSCoF pH 6.5, 25° C., 24 h, Run 2, read-out: pH 6.5 FaSSCoF Solubility (mg/mL) Run 2)?
Answer: Its solubility thermodynamic at 24 h is 0.003 mg/mL (≈ 3.94 µM).

Question: What does the source list for `COc1cc(Nc2cc(Oc3ccc(NC(=O)Nc4cc(C(C)(C)C)cc(N(CCO)S(C)(=O)=O)c4OC)c4ccccc34)ccn2)ccc1C(=O)NCCN1CC[S+]([O-])CC1` [Example 48, 4-((4-((4-(3-(5-(tert-Butyl)-3-(N-(2-hydroxyethyl)methylsulfonamido)-2-methoxyphenyl)-ureido)naphthalen-1-yl)oxy)pyridin-2-yl)amino)-2-methoxy-N-(2-(1-oxidothiomorpholino)-ethyl)benzamide]?
Answer: IC50 [1]: > 11000 nM; inhibition at 11 µM (hERG): -6%; solubility thermodynamic at 24 h [3, 4]: 0.011 mg/mL (≈ 12.4 µM); solubility thermodynamic at 24 h [3, 5]: 0.01 mg/mL (≈ 11.3 µM); % Viability at 1 μg/mL (Jurkat cells; 1 μg/mL): 89.0%

— patent US9751837B2, “Kinase inhibitors” (RESPIVERT LIMITED, priority 2014, dated 2017)
